# Results taken from US8012971B2, “Therapeutic agent for chronic obstructive pulmonary disease” (Dainippon Sumitomo Pharma Co., Ltd., priority 2005, dated 2011).
# Tests used:
# Type in all cases: in vivo
# [1] = system: Guinea Pig Chronic Obstructive Pulmonary Disease (COPD) Model; assay: Histological investigations of lung in guinea pig COPD model; details: 10 mg/kg/day for 25 days; 8 animals
# Protocol: (§1) An evaluation was carried out as follows according to a report of Kosuke MORIZUMI, Junichi FUCHIGAMI et al., 2002, The 75th Annual Meeting of the Japanese Pharmacological Society (2002) Abstract No. P-259, “Study of a chronic obstructive pulmonary disease-Effects of theophylline on respiratory function and lung function of guinea pigs in an exposure of cigarette smoke.”
# (§2) Male Hartley strain guinea pigs (purchased from Japan SLC, Inc.) were taken in a cigarette exposure holder (RMH-TUBES, manufactured by Muenster Ltd.) to secure them to an exposure chamber (Flow-past type nose-only inhalation chamber, manufactured by Muenster Ltd.), and allowed to inhale cigarette smoke (Hi-Lite, manufactured by Japan Tobacco Inc.) for 60 minutes per day for 5 days in a week, totally 4 weeks using a smoking exposure equipment (Hamburg II, manufactured by Borgwaldt Technik), while the exposure was carried out for 4 days in the 4th week. • (2) Drug Administrations
# (§3) Each 0.5% MC suspension of a test drug was orally administered daily in 5 ml/weight (kg) once a day for 25 days from the first day of the exposure. To a sham-exposure group and a control group was orally administered a 0.5% MC suspension in a similar manner. Any oral administrations were carried out 0.5 to 1 hours before exposures on a cigarette-smoke-exposure day or after measurements when measuring respiratory functions. A drug was not administered on the day for measurement of respiratory functions after finishing the 4th week of the exposure. • (3) Measurements of Airway Resistance
# After collection of BALF, trachea and lung were isolated. The ligation site of the left lung was opened, injected neutral formalin buffer into trachea, bronchi and lung at the pressure of 20 cm H2O via cannula fixed on the side of the lung, and the lung tissue was extended to be fixed. According to a conventional method, tissue section samples were produced using posterior lobe of the left lung and hematoxylin-eosin (HE) stain was carried out. Any other lung tissues were stored in neutral formalin buffers. Drug efficacies of the produced tissue samples were evaluated by scoring tissue changes under the microscope. The criteria of scores were shown as follows: −: none, ±: minimal, +: mild, ++: moderate, +++: severe. Each quantification was calculated as 0, 1, 2, 3, 4.
# [2] = system: Guinea Pig Chronic Obstructive Pulmonary Disease (COPD) Model; assay: Inflammatory cells in bronchoalveolar fluid in guinea pig COPD model; details: 10 mg/kg/day oral; mean ± SEM of 8 animals
# Protocol: as §1, §2, §3
# After measuring lung functions, animals were exsanguinated to death and opened the thorax, ligated the left bronchial bifurcation, and then injected saline (2.5 mL) into the right lung and aspirated the same via fixed cannula on measuring lung functions repeatedly in twice (totally 5 mL), and the recovery solution was obtained as a bronchoalveolar lavage fluid (BALF). BALF was centrifuged (230×g, 4° C., for 10 minutes) to give cell pellets. The pellets were suspended in saline (0.5 mL), and to a part of the suspension was added Turk solution (manufactured by Wako Pure Chemical Industries, Ltd.) so as to dilute 10 to 20 folds. Leukocyte numbers per 0.1 μL were measured by a blood cell counting chamber and leukocyte numbers per 1 μL were calculated. Cell suspensions were prepared again, smears were prepared using about 2000 to 3000 total cell numbers, May-Grunwald-Giemsa stain was carried out, leukocyte numbers were counted under the microscope, a ratio of each leukocyte number to total leukocyte number was obtained, and each cell number per 1 μL was calculated based on the ratio. Results are shown in each cell number per 1 μL.
# [3] = system: Guinea Pig Chronic Obstructive Pulmonary Disease (COPD) Model; assay: Lung functions (FRC, RV) in guinea pig COPD model; details: 10 mg/kg/day oral; after 4th week of exposure; mean ± SEM of 8 animals
# Protocol: as §1, §2, §3
# After measuring airway resistances in the 4th week, animals were cut open their tracheas under urethane-anesthetizing ([…], i.p.), cannulated on the side of lung, fixed by ligation, and measured residual volumes (RV) and functional residual capacities (FRC) by lung functions measuring system (Biosystem for maneuver, manufactured by Buxco Electronics).
# [4] = system: Guinea Pig Chronic Obstructive Pulmonary Disease (COPD) Model; assay: Airway resistance (sRaw) in guinea pig COPD model (cigarette smoke exposure); details: 10 mg/kg/day oral; 1 week of cigarette smoke exposure; mean ± SEM of 8 animals
# Protocol: as §1, §2, §3
# Specific airway resistances (sRaw) in guinea pigs were measured during awakening by double-flow plethysmography using general respiratory function analysis system (PULMOS-I, manufactured by M•I•P•S Corp.). Measurements were carried out before the exposure and on the day after finishing the 1st, 2nd, 3rd and 4th weeks of the exposure. Each 100 breathings of respiratory functions were individually measured, and the average values were obtained as measured values. A rate of change of airway resistances was calculated by the following equation. Rate of change of each measured week (%)=100×(a measured value on each measured date−a measured value before starting exposures of cigarette smoke)/a measured value before starting exposures of cigarette smoke
structure (smiles),measurement,setting,value
"Cn1c(=O)c2[nH]cnc2n(C)c1=O [theophylline, Theophylline, reference compound]","Number of animals with grade + (mild): A. Hyperplasia, epithelial cell, bronchus",[1],0
same,"Number of animals with grade + (mild): B. Cellular exudation, neutrophil/eosinophil, lumen, bronchiole",[1],0
same,"Number of animals with grade + (mild): C. Thickening, alveolar wall",[1],1
same,"Number of animals with grade + (mild): D. Accumulation, foamy/macrophage-like cell, alveolus",[1],1
same,"Number of animals with grade + (mild): E. Cellular infiltration, neutrophil, alveolus",[1],0
same,"Number of animals with grade ++ (moderate): A. Hyperplasia, epithelial cell, bronchus",[1],0
same,"Number of animals with grade ++ (moderate): B. Cellular exudation, neutrophil/eosinophil, lumen, bronchiole",[1],0
same,"Number of animals with grade ++ (moderate): C. Thickening, alveolar wall",[1],0
same,"Number of animals with grade ++ (moderate): D. Accumulation, foamy/macrophage-like cell, alveolus",[1],0
same,"Number of animals with grade ++ (moderate): E. Cellular infiltration, neutrophil, alveolus",[1],0
same,"Number of animals with grade +++ (severe): A. Hyperplasia, epithelial cell, bronchus",[1],0
same,"Number of animals with grade +++ (severe): B. Cellular exudation, neutrophil/eosinophil, lumen, bronchiole",[1],0
same,"Number of animals with grade +++ (severe): C. Thickening, alveolar wall",[1],0
same,"Number of animals with grade +++ (severe): D. Accumulation, foamy/macrophage-like cell, alveolus",[1],0
same,"Number of animals with grade +++ (severe): E. Cellular infiltration, neutrophil, alveolus",[1],0
same,"Number of animals with grade ± (minimal): A. Hyperplasia, epithelial cell, bronchus",[1],1
same,"Number of animals with grade ± (minimal): B. Cellular exudation, neutrophil/eosinophil, lumen, bronchiole",[1],0
same,"Number of animals with grade ± (minimal): C. Thickening, alveolar wall",[1],0
same,"Number of animals with grade ± (minimal): D. Accumulation, foamy/macrophage-like cell, alveolus",[1],1
same,"Number of animals with grade ± (minimal): E. Cellular infiltration, neutrophil, alveolus",[1],1
same,"Number of animals with grade − (none): A. Hyperplasia, epithelial cell, bronchus",[1],7
same,"Number of animals with grade − (none): B. Cellular exudation, neutrophil/eosinophil, lumen, bronchiole",[1],8
same,"Number of animals with grade − (none): C. Thickening, alveolar wall",[1],7
same,"Number of animals with grade − (none): D. Accumulation, foamy/macrophage-like cell, alveolus",[1],6
same,"Number of animals with grade − (none): E. Cellular infiltration, neutrophil, alveolus",[1],7
same,"Cell number in BALF, Macrophage",[2],2068 ± 362 cells/μL
same,"Cell number in BALF, Neutrophil",[2],1072 ± 322 ^NS cells/μL
same,"Cell number in BALF, Total",[2],3578 ± 583 cells/μL
same,Functional residual capacity (FRC),[3],6.916 ± 0.234 mL
same,Residual volume (RV),[3],1.962 ± 0.417 mL
same,Specific airway resistance (sRaw) % increase from pre value,[4],15.02 ± 6.73%
